Assay results taken from patent publication US9062041B2 (Bayer Intellectual Property GmbH, priority 2011, dated 2015).

Experiments:
Type in all cases: cell-based
[1] = target: EP2 subtype of the human PGE2 receptor (Homo sapiens, UniProt P43116); assay: cAMP antagonism test on the human EP2 receptor (HTRF cAMP detection); conditions: hEP2 receptor, read-out: Antagonism hEP2 IC50
Procedure, shortened: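 Cells expressing human EP2 preincubated 20 min at RT with compound (0.8 nM–16.5 μM), then stimulated 60 min with PGE2 (3× solution 1.5 nM) in PBS-IBMX. After 20 min lysis, cAMP measured by competitive HTRF with cAMP-d2 and Eu cryptate anti-cAMP antibody (665/620 nm ratio).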

[2] = target: EP4 subtype of the human PGE2 receptor (Homo sapiens, UniProt P35408); assay: cAMP antagonism test on the human EP4 receptor (HTRF cAMP detection); conditions: selectivity towards hEP4, IC50 measured by cAMP antagonism test
EP4 subtype of the human PGE2 receptor, sequence (P35408 whole entry): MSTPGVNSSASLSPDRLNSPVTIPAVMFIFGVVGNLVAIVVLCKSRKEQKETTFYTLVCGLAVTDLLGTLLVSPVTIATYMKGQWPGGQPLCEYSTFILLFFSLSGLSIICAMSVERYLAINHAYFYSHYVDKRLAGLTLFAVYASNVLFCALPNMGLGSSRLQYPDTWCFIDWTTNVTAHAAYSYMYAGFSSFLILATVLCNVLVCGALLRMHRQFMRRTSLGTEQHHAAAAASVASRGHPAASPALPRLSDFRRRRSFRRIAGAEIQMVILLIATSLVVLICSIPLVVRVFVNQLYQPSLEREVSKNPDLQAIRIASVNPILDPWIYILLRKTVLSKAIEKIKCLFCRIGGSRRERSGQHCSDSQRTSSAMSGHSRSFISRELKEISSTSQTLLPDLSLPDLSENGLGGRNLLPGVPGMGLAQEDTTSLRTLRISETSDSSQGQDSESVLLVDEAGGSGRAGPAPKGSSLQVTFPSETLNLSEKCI
Procedure, shortened: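 Cells expressing human EP4 preincubated 20 min at RT with compound (0.8 nM–16.5 μM), then stimulated with PGE2 (0.3 nM in 3× solution, with IBMX) 60 min at RT. After lysis, cAMP measured by HTRF competition (665/620 nm ratio); antagonism seen as rise in FRET signal.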

human PGD receptor = target: T1, human PGD receptor (Homo sapiens, UniProt Q13258); assay: cAMP antagonism test on the human prostaglandin D receptor (HTRF cAMP detection); conditions: selectivity towards hDP, IC50 measured by cAMP antagonism test
T1 sequence (Q13258 1-359): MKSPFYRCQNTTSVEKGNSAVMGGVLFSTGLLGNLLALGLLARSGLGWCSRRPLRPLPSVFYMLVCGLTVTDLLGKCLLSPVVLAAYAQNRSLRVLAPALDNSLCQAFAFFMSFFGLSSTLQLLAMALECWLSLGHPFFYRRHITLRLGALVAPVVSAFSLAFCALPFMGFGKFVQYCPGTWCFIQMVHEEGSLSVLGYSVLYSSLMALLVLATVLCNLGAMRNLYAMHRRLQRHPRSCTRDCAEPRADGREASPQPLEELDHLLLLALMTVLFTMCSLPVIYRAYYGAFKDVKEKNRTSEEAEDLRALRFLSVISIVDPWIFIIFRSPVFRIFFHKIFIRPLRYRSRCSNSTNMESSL
Procedure, shortened: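 Cells pre-mixed with cAMP-d2 were preincubated with compound (0.8 nM–16.5 μM) for 20 min at RT, then stimulated with 3× PGD2 solution (6 nM, in PBS-IBMX) for 30 min at RT. After lysis (20 min), HTRF read at 665/620 nm; antagonism seen as rise in FRET ratio.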

EP2 subtype of the human PGE2 receptor, sequence (P43116 whole entry): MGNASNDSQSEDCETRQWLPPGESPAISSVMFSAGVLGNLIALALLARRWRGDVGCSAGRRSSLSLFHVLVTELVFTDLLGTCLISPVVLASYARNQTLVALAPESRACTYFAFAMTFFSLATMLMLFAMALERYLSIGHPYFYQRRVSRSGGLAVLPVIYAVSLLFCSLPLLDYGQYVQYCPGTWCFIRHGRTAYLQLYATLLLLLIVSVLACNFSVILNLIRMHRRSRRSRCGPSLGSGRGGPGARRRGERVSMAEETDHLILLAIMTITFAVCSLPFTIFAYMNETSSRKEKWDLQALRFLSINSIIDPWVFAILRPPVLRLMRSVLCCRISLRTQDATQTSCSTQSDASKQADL

| IC50 [1] | Selectivity hEP2/hEP4 [2] | Selectivity hEP2/hDP (human PGD receptor) | Structure (SMILES) |
| --- | --- | --- | --- |
| 22.9 nM | xxx (xxx > 100) | xxx (xxx > 100) | COCCNC(=O)c1ccc2nn(CC3CCN(C(=O)c4ccc(S(F)(F)(F)(F)F)cc4)CC3)cc2c1OC [Example 268, 4-methoxy-N-(2-methoxyethyl)-2-({1-[4-(pentafluoro-λ^6-sulphanyl)benzoyl]-piperidin-4-yl}methyl)-2H-indazol-5-carboxamide] |
| 12.5 nM | xxx (xxx > 100) | xxx (xxx > 100) | Cc1c(C(=O)NCCS(C)(=O)=O)ccc2nn(CC3CCN(C(=O)c4ccc(Oc5ccc(C(F)(F)F)nc5)cc4)CC3)cc12 [Example 397, N-(2-mesylethyl)-4-methyl-2-{[1-(4-{[6-(trifluoromethyl)pyridin-3-yl]oxy}-benzoyl)piperidin-4-yl]methyl}-2H-indazol-5-carboxamide] |
| 41.9 nM | xxx (xxx > 100) | xxx (xxx > 100) | Cc1c(C(=O)NCCSC(F)(F)F)ccc2nn(CC3CN(C(=O)c4ccc(OC(F)(F)F)cc4)C3)cc12 [Example 133, 4-methyl-2-({1-[4-(trifluoromethoxy)benzoyl]azetidin-3-yl}methyl)-N-{2-[(trifluoromethyl)sulphanyl]ethyl}-2H-indazol-5-carboxamide] |
| 40.9 nM | xxx (xxx > 100) | xxx (xxx > 100) | COCCNC(=O)c1ccc2nn(C[C@H]3CCN(C(=O)c4ccc(Cl)cc4)C3)cc2c1C [Example 222, 2-{[(S)-1-(4-chlorobenzoyl)pyrrolidin-3-yl]methyl}-N-(2-methoxyethyl)-4-methyl-2H-indazol-5-carboxamide] |
| 128 nM | xxx (xxx > 100) | xxx (xxx > 100) | COc1cccc(-c2ccc(C(=O)N3CCC(Cn4cc5c(C)c(C(=O)NCC(F)(F)F)ccc5n4)CC3)cc2)n1 [Example 323, 2-({1-[4-(6-methoxypyridin-2-yl)benzoyl]piperidin-4-yl}methyl)-4-methyl-N-(2,2,2-trifluoroethyl)-2H-indazol-5-carboxamide] |
| 84.1 nM | xxx (xxx > 100) | xxx (xxx > 100) | Cc1c(C(=O)NCC(F)(F)F)ccc2nn(CC3CCN(C(=O)c4ccc(Oc5ccc(Cl)cn5)cc4)CC3)cc12 [Example 311, 2-[(1-{4-[(5-chloropyridin-2-yl)oxy]benzoyl}piperidin-4-yl)methyl]-4-methyl-N-(2,2,2-trifluoroethyl)-2H-indazol-5-carboxamide] |
| 18.8 nM | xxx (xxx > 100) | xxx (xxx > 100) | Cc1c(C(=O)NCC2CCCCO2)ccc2nn(CC3CN(C(=O)c4ccc(Cl)cc4)C3)cc12 (single isomer, unassigned) [Example 145, (R or S)-2-{[1-(4-chlorobenzoyl)azetidin-3-yl]methyl}-4-methyl-N-(3,4,5,6-tetrahydro-2H-pyran-2-ylmethyl)-2H-indazol-5-carboxamide] |
| 64.9 nM | xxx (xxx > 100) | xxx (xxx > 100) | COCCNC(=O)c1ccc2nn(CC3CN(C(=O)c4ccc(Cl)cc4)C3)cc2c1OC [Example 214, 2-{[1-(4-chlorobenzoyl)azetidin-3-yl]methyl}-4-methoxy-N-(2-methoxyethyl)-2H-indazol-5-carboxamide] |
| 315 nM | xx (xx: 10-100) | xx (xx: 10-100) | Cc1ccc(-c2ccc(C(=O)N3CCC(Cn4cc5c(C)c(C(=O)NCC(F)(F)F)ccc5n4)CC3)cc2)cn1 [Example 319, 4-methyl-2-({1-[4-(6-methylpyridin-3-yl)benzoyl]piperidin-4-yl}methyl)-N-(2,2,2-trifluoroethyl)-2H-indazol-5-carboxamide] |
| 19.4 nM | xxx (xxx > 100) | xxx (xxx > 100) | COCCNC(=O)c1ccc2nn(CC3CCN(C(=O)c4ccc(-c5cnc(C(F)(F)F)nc5)cc4)CC3)cc2c1C [Example 382, N-(2-methoxyethyl)-4-methyl-2-[(1-{4-[2-(trifluoromethyl)pyrimidin-5-yl]-benzoyl}piperidin-4-yl)methyl]-2H-indazol-5-carboxamide] |
| 99.8 nM | xxx (xxx > 100) | xxx (xxx > 100) | Cc1c(C(=O)NCC(F)(F)F)ccc2nn(CC3CCN(C(=O)c4ccc(Oc5cccc(C(F)(F)F)n5)cc4)CC3)cc12 [Example 304, 4-methyl-N-(2,2,2-trifluoroethyl)-2-{[1-(4-{[6-(trifluoromethyl)pyridin-2-yl]-oxy}benzoyl)piperidin-4-yl]methyl}-2H-indazol-5-carboxamide] |
| 5.11 nM | xxx (xxx > 100) | xxx (xxx > 100) | COCCNC(=O)c1ccc2nn(CC3CCN(C(=O)c4ccc(Oc5cccc(F)c5)cc4)CC3)cc2c1C [Example 361, 2-({1-[4-(3-fluorophenoxy)benzoyl]piperidin-4-yl}methyl)-N-(2-methoxyethyl)-4-methyl-2H-indazol-5-carboxamide] |
| 153 nM | xxx (xxx > 100) | xxx (xxx > 100) | Cc1cc2nn(CC3CN(C(=O)c4ccc(Cl)cc4)C3)cc2cc1C(=O)NCCOCC1CC1 [Example 198, 2-{[1-(4-chlorobenzoyl)azetidin-3-yl]methyl}-N-[2-(cyclopropylmethoxy)ethyl]-6-methyl-2H-indazol-5-carboxamide] |
| 3.85 nM | xxx (xxx > 100) | xxx (xxx > 100) | COCCNC(=O)c1ccc2nn(CC3CCN(C(=O)c4ccc(-c5ccc(C)cc5)cc4F)CC3)cc2c1C [Example 44, 2-({1-[(3-fluoro-4′-methylbiphenyl-4-yl)carbonyl]piperidin-4-yl}methyl)-N-(2-methoxyethyl)-4-methyl-2H-indazol-5-carboxamide] |
| 27.8 nM | xxx (xxx > 100) | xxx (xxx > 100) | Cc1c(C(=O)NCC(F)(F)F)ccc2nn(CC3CCN(C(=O)c4ccc(Oc5ccc(F)c(F)c5)cc4)CC3)cc12 [Example 314, 2-({1-[4-(3,4-difluorophenoxy)benzoyl]piperidin-4-yl}methyl)-4-methyl-N-(2,2,2-trifluoroethyl)-2H-indazol-5-carboxamide] |
| 20 nM | xxx (xxx > 100) | xxx (xxx > 100) | COCCNC(=O)c1ccc2nn(C[C@H]3CCN(C(=O)c4ccc(-c5ccc(F)cc5)cc4)C3)cc2c1C [Example 223, 2-({(S)-1-[(4′-fluorobiphenyl-4-yl)carbonyl]pyrrolidin-3-yl}methyl)-N-(2-methoxyethyl)-4-methyl-2H-indazol-5-carboxamide] |
| 16.1 nM | xxx (xxx > 100) | xxx (xxx > 100) | COCCNC(=O)c1ccc2nn(CC3CCN(C(=O)c4ccc(C(F)(F)F)cc4)CC3)cc2c1C [Example 23, N-(2-methoxyethyl)-4-methyl-2-({1-[4-(trifluoromethyl)-benzoyl]piperidin-4-yl}methyl)-2H-indazol-5-carboxamide] |
| 63.6 nM | xxx (xxx > 100) | xxx (xxx > 100) | COCCNC(=O)c1ccc2nn(CC3CCN(C(=O)c4ccc(Oc5ccc(C#N)cn5)cc4)CC3)cc2c1C [Example 356, 2-[(1-{4-[(5-cyanopyridin-2-yl)oxy]benzoyl}piperidin-4-yl)methyl]-N-(2-methoxyethyl)-4-methyl-2H-indazol-5-carboxamide] |
| 14.3 nM | xxx (xxx > 100) | xxx (xxx > 100) | COCCNC(=O)c1ccc2nn(CC3CCN(C(=O)c4ccc(Cl)cc4)CC3)cc2c1OC(F)F [Example 225, 2-{[1-(4-chlorobenzoyl)piperidin-4-yl]methyl}-4-(difluoromethoxy)-N-(2-methoxyethyl)-2H-indazol-5-carboxamide] |
| 227 nM | xx (xx: 10-100) | xx (xx: 10-100) | Cc1cc2nn(CC3CN(C(=O)c4ccc(OC(F)(F)F)cc4)C3)cc2cc1C(=O)NCC(F)(F)F [Example 195, 6-methyl-N-(2,2,2-trifluoroethyl)-2-({1-[4-(trifluoromethoxy)benzoyl]azetidin-3-yl}methyl)-2H-indazol-5-carboxamide] |
| 80.6 nM | xxx (xxx > 100) | xxx (xxx > 100) | COCCNC(=O)c1cc2cn(CC3CCN(C(=O)c4ccc(C(F)(F)F)c(F)c4)CC3)nc2cc1C [Example 208, 2-({1-[3-fluoro-4-(trifluoromethyl)benzoyl]piperidin-4-yl}methyl)-N-(2-methoxyethyl)-6-methyl-2H-indazol-5-carboxamide] |
